Test results reported in patent US11344534B2, “Cholinergic agonism for the treatment of pancreatic cancer” (priority 2017, dated 2022).
“Also recorded” adds a separate entry of the source.

What was measured:
KPC mice = KPC mice with established PDAC treated with gemcitabine with or without bethanechol; format: in vivo, mouse; conditions: for overall survival (in words): KPC mice with established PDAC, bethanechol + GEM vs GEM alone
Text: Next, the role of cholinergic signaling in advanced pancreatic cancer was investigated using the genetically engineered KPC (K-Ras^+/LSL-G12D;p53^+/R172H;Pdx-1-Cre) mouse model, which develops ductal adenocarcinoma by 17-19 weeks (Olive et al., 2009, Hingorani et al., 2005).
K-Ras^+/LSL-G12D, p53^+/R172H, and Pdx-1-Cre mice were provided by Dr. Kenneth Olive (Columbia University). M1RKO mice were purchased from the Jackson Laboratory. KC mice and KPC mice were crossed with M1RKO mice. For several experiments, KC mice received pyloroplasty with or without vagotomy at 8 weeks and KC+VxPP mice were treated with or without bethanechol (400 μg/ml) after surgery immediately. They were sacrificed at 20 weeks. In addition, KPC mice were treated with gemcitabine biweekly and with or without bethanechol when the tumor size of 3-5 mm detected using ultrasound. They were sacrificed when the mice were moribund. For liver metastatic experiments, WT type C57/B6 mice received spleen injection and hemi-splenectomy. […] They were sacrificed when the mice were moribund.
Next, the role of cholinergic signaling in established PDAC was investigated using the KPC mouse model, which develops PDAC at a median age of 17-19 weeks^2, 29. KPC mice with pancreatic tumors that measured 3-5 mm in diameter on ultrasound were randomized to treatment with gemcitabine (GEM) alone, or GEM+bethanechol (FIG. 8I).
LSL-Kras^+/LSL-G12D, LSL-Trp53^+/R172H, and Pdx1-Cre mice were bred by Dr. Kenneth P. Olive and co-workers. Chrm1KO mice (C57BL/6-Chrm1tm1 Stl/J, (M1RKO) mice^1 were purchased from the Jackson Laboratory. KC mice and KPC mice were crossed with M1RKO mice. In the vagotomy experiments, KC mice received pyloroplasty with or without vagotomy at 8 weeks, and some KC+VxPP mice were treated with bethanechol ([…] in drinking water) immediately after surgery and then sacrificed at 20 weeks. KPC mice in treatment studies were palpated weekly for tumors in the pancreas. Once a tumor was suspected, KPC mice were screened by VEVO 2100—Ultrasound Imaging System (FUJIFILM VisualSonics) for pancreatic cancer. KPC mice were treated with gemcitabine, given by i.p. injection 100 mg/kg biweekly, with or without bethanechol, when a tumor size of 3-5 mm was detected using ultrasound. Mice were sacrificed when the mice were moribund. NOD/SCID mice were implanted with Panc1 cells subcutaneously and sacrificed at 30 days after implantation. For liver metastatic experiments, WT type C57/B6 mice received a splenic injection of labeled Panc02 cells, followed by hemi-splenectomy. The mice were then divided into three groups. […] Mice were then sacrificed when moribund. At necropsy, hepatic metastases that could clearly be identified as tumor nodules on gross inspection were separated. All animal studies and procedures were approved by the IACUC committee at Columbia University. All mice were bred under specific pathogen free conditions. Comparisons were made with age- and sex-matched control animals.
CD44, p-EGFR, p-PI3K, p-ERK, and Ki67 positive cells were quantified in at least five high power fields from at least 3 mice per group. Total cells per field were counted via morphometric analysis using ImageJ and the ratio of positive cells to total cell number calculated.

[1] = test system: Organoid cultures derived from LSL-K-Ras^G12D pancreata not treated by an Adeno-Cre virus; format: cell-based; conditions: no Adeno-Cre virus (Kras not activated)
[2] = test system: human PDAC cell lines (MiaPaca2, Panc1); test: MTT assay, human PDAC cell lines; format: cell-based
Method: Cell proliferation in each cell line was assessed with a 3-(4,5-dimethylthiazol-2yl)-2,5-diphenyltetrazolium bromide (MTT) assay kit (Sigma) in accordance with the manufacturer's instructions. 3×10^3 cells were grown in 96-well plate to around ˜70% confluent, changed the 0.5% FBS medium, added the drugs respectively and incubated them for further 72 hrs incubation in a typical CO2 incubator (˜20% O2). Treated cells were rinsed twice with PBS, incubated in 10 ll MTT solution for 4 hr at 37° C., and 100 uL DMSO was added to each well. The absorbance of each well was measured at 570 nm using Tilter-Tech 96-well multiscanner (Becton Dickinson, Heidelberg, Germany). The relative number of viable cells compared with the number of cells without drug treatment was expressed as percent cell viability using the following formula:
Cell proliferation in each cell line was assessed with a 3-(4,5-dimethylthiazol-2yl)-2,5-diphenyltetrazolium bromide (MTT) assay kit (Sigma) in accordance with the manufacturer's instructions. 3×10^3 cells were grown in 96-well plate to ˜70% confluency, the media was changed to 0.5% FBS medium, the respective drugs were added, and they were incubated for an additional 72 hours in a CO2 incubator (˜5% CO2). Treated cells were rinsed twice with PBS, incubated in 10 ul MTT (5 mg/ml PBS) solution for 4 hours at 37° C., and 100 uL DMSO was then added to each well. The absorbance of each well was measured at 570 nm using a Tilter-Tech 96-well multiscanner (Becton Dickinson, Heidelberg, Germany). The relative number of viable cells compared with the number of cells without drug treatment was expressed as percent cell viability using the following formula: cell viability (%)=A570 of treated cells/A570 of untreated cells.

murine K8282 cells = test: Western blot of EGFR/MAPK and PI3K/AKT signaling, K8282; format: cell-based, mouse
Method: To analyze EGFR and the MAPK and PI3K-Akt pathway in human and murine pancreatic cancer cell lines, cells were grown in 12-well plate to around ˜70% confluent, changed the 0.5% FBS medium, added the drugs respectively and incubated them for further 72 hrs incubation in a typical CO2 incubator (˜20% O2). After removing the medium, cells were washed twice with PBS, and protein extraction was performed on ice using RIPA buffer with protease inhibitor (Complete) (Roche) cocktail and phosphatase inhibitor (phosSTOP) (Roche). Protein samples were subsequently separated in 10% Bis-Tris Gel NuPAGE® electrophoresis using MES SDS Running Buffer (Invitrogen, CA, USA). After transfer to nitrocellulose, membranes were blocked with 5% BSA, and samples were probed with the following primary antibodies: p-EGFR (Cell Signaling), EGFR (Cell Signaling), p-BRAF (Cell Signaling), BRAF (Cell Signaling), p-ERK1/2 (phosphorylated p44/42 MAPK) (Thr202/Tyr204) (Cell Signaling), ERK1/2 (p44/42 MAPK) (Thr202/Tyr204) (Cell Signaling), p-PI3K (Cell Signaling), PI3K (Cell Signaling), p-Akt (Cell Signaling), Akt (Cell Signaling), and β-actin (Cell Signaling) followed by horseradish peroxidase-coupled secondary antibody. Immunoreactive bands were visualized using 5-bromo-4-chloro-3-indolyl phosphate/nitro blue tetrazolium and bands were quantified with ImageJ.
To analyze EGFR, MAPK and PI3K-AKT pathways in human and murine pancreatic cancer cell lines, cells were grown in 12-well culture plates to ˜70% confluency. The medium was then changed to 0.5% FBS medium, the respective drugs were added, and they were incubated for an additional 72 hours in a CO2 incubator (˜5% CO2). After removing the medium, cells were washed twice with PBS, and protein extraction was performed on ice using RIPA buffer with protease inhibitor (Complete, Roche) cocktail and a phosphatase inhibitor (phosSTOP, Roche). Protein samples were subsequently separated by 10% Bis-Tris Gel NuPAGE® electrophoresis using MES SDS Running Buffer (Invitrogen, CA, USA). After transfer to nitrocellulose, membranes were blocked with 5% BSA, and samples were probed with the following primary antibodies: p-EGFR (Cell Signaling), EGFR (Cell Signaling), p-BRAF (Cell Signaling), BRAF (Cell Signaling), p-ERK1/2 (phosphorylated p44/42 MAPK) (Thr202/Tyr204) (Cell Signaling), ERK1/2 (p44/42 MAPK) (Thr202/Tyr204) (Cell Signaling), p-PI3K (Cell Signaling), PI3K (Cell Signaling), p-AKT (Cell Signaling), AKT (Cell Signaling), and β-actin (Cell Signaling) followed by horseradish peroxidase-coupled secondary antibody. Immunoreactive bands were visualized using 5-bromo-4-chloro-3-indolyl phosphate/nitro blue tetrazolium and bands were quantified with ImageJ.

Panc1 cells = test: Soft agar assay, human cells; format: cell-based; conditions: human cancer cells (Panc1)
[3] = test system: CD44+CD24+EpCAM+ population of Panc1 and BxPC3 cells; test: Flow cytometry (FACS) of cancer stem cell population; format: cell-based, human; conditions: for CD44+CD24+EpCAM+ cancer stem cell population (FACS): human pancreatic cancer cells, 72 hours pilocarpine
Method: Panc-1 cells were grown in 6-well plate to around ˜70% confluent, changed the 0.5% FBS medium, added the drugs respectively and incubated them for further 72 hrs incubation in a typical CO2 incubator (˜20% O2). Afterwards, cells were kept on ice in blocking solution (PBS pH 7.2 containing ? 3% bovine serum albumin, 2 mM EDTA) for 20 minutes. Cells were then stained with a PE-conjugated antibody against CD24, a FITC-conjugated antibody against CD44, and an APC-conjugated antibody against CD326 (1:100—in blocking solution) on ice for 30 minutes. The cells were then washed, reconstituted in sorting buffer (PBS pH 7.2 containing 0.5% bovine serum albumin, 2 mM EDTA)+DAPI and analyzed using a BD FACSAria II.
Panc1 and BxPC3 cells were grown in 6-well plate to ˜70% confluency, the media was changed to 0.5% FBS medium, the respective drugs were added, and they were incubated for an additional 72 hrs in a typical CO2 incubator (˜5% CO2). Subsequently, cells were kept on ice in blocking solution (PBS pH 7.2 containing 3% bovine serum albumin, 2 mM EDTA) for 20 minutes. Cells were then stained with a PE-conjugated antibody against CD24, a FITC-conjugated antibody against CD44, and an APC-conjugated antibody against CD326 (1:100 in blocking solution) on ice for 30 minutes. The cells were then washed, reconstituted in sorting buffer (PBS pH 7.2 containing 0.5% bovine serum albumin, 2 mM EDTA)+DAPI and analyzed using a BD FACSAria II.

Row | SMILES | overall survival (in words) (KPC mice) | overall survival (in words) (KPC mice; listed as Bethanechol) | expression of p-EGFR, p-PI3K and p-ERK1/2 (immunohistochemical staining) (KPC mice; pancreata of KPC mice treated with bethanechol) | sphere forming capacity / growth of WT spheres [1] | proliferation (MTT assay) ([2]; 72 hours, 0.5% FBS medium) | increase in proliferation due to muscarinic antagonists ([2]; agonist added to antagonist) | phosphorylation of EGFR, BRAF, ERK1/2, PI3K and AKT kinases (western blot) (murine K8282 cells; 72 hours) | ratios of p-EGFR/EGFR, p-BRAF/BRAF, p-ERK/ERK, p-PI3K/PI3K and p-AKT/AKT (densitometry) (murine K8282 cells; single agent alone) | colonies / sphere formation in soft agar (Panc1 cells) | CD44+CD24+EpCAM+ cancer stem cell population (FACS) [3] | CD44+CD24+EpCAM+ cancer stem cell population (FACS) ([3]; listed as Pilocarpine) | suppression of CD44+CD24+EpCAM+ cancer stem cells ([3]; pilocarpine at doses of 100-500 rμM, preliminary studies)
1 | CC(C[N+](C)(C)C)OC(N)=O (stereo not shown) [bethanechol, 2-[(aminocarbonyl)oxy]-N,N,N-trimethyl-1-propanaminium] | extended significantly; also recorded: significantly extended | significantly extended; also recorded: prolongs | suppressed; also recorded: significantly downregulated | increased | – | – | – | – | – | – | – | –
2 | CC[C@@H]1C(=O)OC[C@@H]1Cc1cncn1C [pilocarpine, (3S,4R)-3-ethyl-4-[(3-methylimidazol-4-yl)methyl]oxolan-2-one] | – | – | – | stimulates | suppressed | blocked; also recorded: inhibited to some extent | significantly less phosphorylated | significantly decreased | significantly fewer | marked suppression; also recorded: reduced; also recorded: Dose dependent decrease | remarkable suppression | > 50%
